Tests used:
[1] = system: MCF-7 human breast cancer cells; details: MCF-7 cells, cited from earlier work; for reduction in MCF-7 cell numbers (inhibition): same conditions for fulvestrant and tamoxifen (tamoxifen: maximum)
estrogen receptor (ER) = details: relative to oestradiol equivalent of 1.0; cited from earlier work
breast cancer [2] = assay: treatment of breast cancer patients who failed previous aromatase inhibitor treatment; assay type: in vivo, human; details: patients previously treated with an aromatase inhibitor (optionally also a SERM) and failed
MCF-7 tumours = details: cited from earlier work
breast cancer [3] = details: women whose breast cancer has progressed following tamoxifen therapy; cited from earlier work

Row | Compound | reduction in MCF-7 cell numbers (inhibition) [1] [%] | relative binding affinity for the estrogen receptor (ER) (estrogen receptor (ER)) | sensitivity of breast cancer to further treatment (breast cancer [2]) | IC50 ([1]; read-out: IC50, inhibitory effect on the growth of MCF-7 human breast cancer cells) [nM] | duration of growth suppression of established MCF-7 tumours versus tamoxifen (MCF-7 tumours; established MCF-7 tumours, compared with tamoxifen treatment) | delay of tumourgenesis versus tamoxifen-treated mice (MCF-7 tumours; mice) | sensitivity of tamoxifen-resistant MCF-7 tumours to treatment (MCF-7 tumours; tumours grown out after long-term treatment with tamoxifen) | efficacy in phase II trial (breast cancer [3])
1 | CC/C(=C(\c1ccccc1)c1ccc(OCCN(C)C)cc1)c1ccccc1 [tamoxifen] | ≤ 50 | – | – | – | – | – | – | –
2 | oestradiol | – | 1.0 | – | – | – | – | – | –
3 | C[C@]12CC[C@@H]3c4ccc(O)cc4C[C@@H](CCCCCCCCC[S+]([O-])CCCC(F)(F)C(F)(F)F)[C@H]3[C@@H]1CC[C@@H]2O (stereo partly drawn) [fulvestrant, 7-alpha-[9-(4,4,5,5,5pentafluoropentylsulphiny)nonyl]-estra-1,3,5(10)-triene-3, 17βdiol] | 80 | 0.89 | sensitive to further treatment by fulvestrant | 0.29 | twice as long | delayed to a greater extent | remain sensitive to fulvestrant treatment | demonstrated efficacy

Reference: patent US20110183949A1, “Use of Fulvestrant in the Treatment of Resistant Breast Cancer” (priority 2000, published 2011)
